This passage reports MIC results from DBAASP.

In brackets after ≈: the same amount, converted by molar mass. Several values for one entry are separate records, joined by “and”; a condition that tells them apart may be missing. Identical values can stand only once. Where only a bound is given, the exact number is not on record here.

Assay in all cases: ≥ marks a high value that may be exact or a test limit, other limits are often not marked, values filed in µg/mL are converted to µM
Test [1] relates to Staphylococcus epidermidis ATCC 12228.
The test system of a further test is Escherichia coli DL7.
Test [2] concerns Klebsiella aerogenes ATCC 13048.
In a further test the test system is Bacillus subtilis PS832.
The test system of test [3] is Staphylococcus aureus ATCC 29213.
Test [4] relates to Escherichia coli ATCC 25922.
Test [5] relates to Staphylococcus aureus ATCC 700699.
In test [6] the test system is Klebsiella pneumoniae ATCC 700603.
In test [7] the test system is Pseudomonas aeruginosa ATCC 27853.
Test [8] relates to Staphylococcus aureus ATCC 33591.
Test [9] concerns Staphylococcus aureus CCARM 3126.
In test [10] the test system is Escherichia coli CCARM 1238.
Test [11] relates to Acinetobacter baumannii CCARM 12036.
Test [12] relates to Pseudomonas aeruginosa CCARM 2002.
Test [13] relates to Pseudomonas aeruginosa CCARM 2095.
Test [14] has as its system Staphylococcus aureus CCARM 3114.
Test [15] concerns Pseudomonas aeruginosa CCARM 2163.
Test [16] relates to Staphylococcus aureus KCTC 1916.
The subject of test [17] is Staphylococcus aureus CCARM 3108.
In test [18] the test system is Staphylococcus aureus KCTC 1621.
Test [19] concerns Staphylococcus epidermidis KCTC 1917.
Test [20] concerns Pseudomonas aeruginosa KCTC 1637.
Test [21] has as its system Bacillus subtilis KCTC 1022.
Test [22] relates to Salmonella typhimurium KCTC 1926.
Test [23] deals with Pseudomonas aeruginosa KCTC 2513.
The test system of test [24] is Salmonella typhimurium CCARM 8007.
Test [25] has as its system Acinetobacter baumannii CCARM 12037.
Test [26] has as its system Staphylococcus aureus KCTC 3881.
The test system of test [27] is Pseudomonas aeruginosa CCARM 2003.
The subject of test [28] is Escherichia coli KCTC 1682.
For test [29], the system named is Escherichia coli KCTC 2593.
Test [30] deals with Acinetobacter baumannii CCARM 12035.
For test [31], the system named is Staphylococcus aureus CCARM 3090.
The test system of test [32] is Bacillus subtilis KCTC 3068.
Test [33] concerns Acinetobacter baumannii CCARM 12005.
Test [34] deals with Bacillus subtilis KCTC 1021.
Test [35] relates to Escherichia coli KCTC 2571.
Test [36] deals with Salmonella typhimurium CCARM 8003.
Test [37] has as its system Staphylococcus aureus CCARM 3089.
The subject of test [38] is Salmonella typhimurium CCARM 8009.
Test [39] relates to Escherichia coli CCARM 1229.
Test [40] relates to Pseudomonas aeruginosa KCTC 2004.

As usually defined, the MIC is the least concentration at which growth counts as inhibited. Low readings indicate greater potency, high ones weaker potency. For `CC(C)C[C@H](NC(=O)[C@H](CCCCN)NC(=O)[C@H](C)NC(=O)[C@H](CC(C)C)NC(=O)[C@H](CCCCN)NC(=O)[C@H](CCCCN)NC(=O)[C@H](C)NC(=O)[C@H](CC(C)C)NC(=O)[C@H](CCCCN)NC(=O)[C@H](C)NC(=O)[C@H](CC(C)C)NC(=O)[C@H](CCCCN)NC(=O)[C@H](Cc1cnc[nH]1)NC(=O)CNC(=O)CN)C(=O)N[C@@H](C)C(=O)N[C@@H](CCCCN)C(N)=O` [GGHKLAKLAKKLAKLAK], the MIC is 1 µM (≈ 1.77 µg/mL) in [1]; 0.125 µM and 0.06 µM in the test with Escherichia coli DL7; at least 32 µM in test [2]; 0.125 µM and 0.06 µM against Bacillus subtilis PS832.

Consider `CC[C@H](C)[C@H](NC(=O)[C@H](CC(=O)O)NC(=O)[C@H](CCCCN)NC(=O)[C@H](C)NC(=O)[C@H](C)NC(=O)CNC(=O)[C@H](CCCCN)NC(=O)[C@H](CC(C)C)NC(=O)[C@@H](NC(=O)[C@H](CC(=O)O)NC(=O)[C@@H](NC(=O)[C@@H](NC(=O)CN)C(C)C)C(C)C)[C@@H](C)CC)C(=O)N[C@@H](C)C(=O)NCC(=O)N[C@@H](Cc1cnc[nH]1)C(=O)N[C@@H](CC(C)C)C(=O)N[C@@H](C)C(=O)N[C@@H](CO)C(=O)N[C@@H](CCCCN)C(=O)N[C@H](C(=O)N[C@@H](CCSC)C(=O)N[C@@H](CC(N)=O)C(=O)N[C@@H](C)C(=O)N[C@@H](CC(C)C)C(N)=O)C(C)C` [GVVDILKGAAKDIAGHLASKVMNAL], for which the MIC in test [3] was over 100 µM; in [4] it was 100 µM (≈ 249 µg/mL); in [5], at least 100 µM; in test [6], over 100 µM; in test [7], over 100 µM; in test [8], at least 100 µM.

Take `CC[C@H](C)[C@H](NC(=O)CNC(=O)[C@H](CCCN=C(N)N)NC(=O)[C@H](CCCCN)NC(=O)[C@@H](NC(=O)[C@H](Cc1cnc[nH]1)NC(=O)[C@H](Cc1cnc[nH]1)NC(=O)[C@H](Cc1ccccc1)NC(=O)[C@@H](N)Cc1ccccc1)[C@@H](C)CC)C(=O)N[C@H](C(=O)N[C@@H](Cc1cnc[nH]1)C(=O)N[C@H](C(=O)NCC(=O)N[C@@H](CCCCN)C(=O)N[C@H](C(=O)N[C@H](C(=O)N[C@@H](Cc1cnc[nH]1)C(=O)N[C@@H](CCCN=C(N)N)C(=O)N[C@@H](CC(C)C)C(=O)N[C@H](C(=O)N[C@H](C(=O)NCC(=O)O)[C@@H](C)O)C(C)C)[C@@H](C)CC)[C@@H](C)O)C(C)C)C(C)C` [FFHHIKRGIVHVGKTIHRLVTG]: the MIC was determined as 16 µM (≈ 40.8 µg/mL) in [9]; 16 µM (≈ 40.8 µg/mL) in test [10]; 4 µM (≈ 10.2 µg/mL) in test [11]; 4 µM (≈ 10.2 µg/mL) in test [12]; 4 µM (≈ 10.2 µg/mL) in [13]; 16 µM (≈ 40.8 µg/mL) in test [14]. Also, the minimal inhibitory concentration (MIC) was 4 µM (≈ 10.2 µg/mL) in test [15]; 4 µM (≈ 10.2 µg/mL) in test [16]; 16 µM (≈ 40.8 µg/mL) in [17]; 4 µM (≈ 10.2 µg/mL) in test [18]; 2 µM (≈ 5.11 µg/mL) in [19]; 8 µM (≈ 20.4 µg/mL) in test [20]. The MIC in test [21] stood at 1 µM (≈ 2.55 µg/mL); in [22], 8 µM (≈ 20.4 µg/mL); in test [23], 8 µM (≈ 20.4 µg/mL); in test [24], 16 µM (≈ 40.8 µg/mL); in [25], 4 µM (≈ 10.2 µg/mL); in [26] it was 4 µM (≈ 10.2 µg/mL). Besides, the MIC worked out at 4 µM (≈ 10.2 µg/mL) in test [27]; 4 µM (≈ 10.2 µg/mL) in [28]; 2 µM (≈ 5.11 µg/mL) in test [29]; 4 µM (≈ 10.2 µg/mL) in test [30]; 16 µM (≈ 40.8 µg/mL) in test [31]; 4 µM (≈ 10.2 µg/mL) in test [32]. Also, the MIC is 4 µM (≈ 10.2 µg/mL) in test [33]; 4 µM (≈ 10.2 µg/mL) in test [34]; 4 µM (≈ 10.2 µg/mL) in test [35]; 16 µM (≈ 40.8 µg/mL) in [36]; 16 µM (≈ 40.8 µg/mL) in test [37]; 16 µM (≈ 40.8 µg/mL) in [38]. Further, the values for the MIC in test [39] and in test [40] were 16 µM (≈ 40.8 µg/mL) and 8 µM (≈ 20.4 µg/mL), respectively.
